Measurements published in article PMC11820618 (Molecules, 2025).

System: TRPV1
Test: not given
Settings: read-out: TRPV1 EC50 (potency); cited from earlier work

Row | SMILES | EC50 [µM]
1 | COc1cc(CNC(=O)CCCc2ccc(I)s2)ccc1O [4a] | 0.0074
2 | COc1cc(CNC(=O)CCCc2ccc(-c3cccnc3)s2)ccc1O [4b] | 0.0764
3 | COc1cc(CNC(=O)CCCc2ccc(-c3ccccc3)s2)ccc1O [4c] | 0.0016
4 | COc1cc(CNC(=O)CCCc2ccccc2)ccc1O [4d] | 0.109
5 | COc1cc(CNC(=O)CCCc2cccs2)ccc1O [compound 2, N-(4-Hydroxy-3-Methoxybenzyl)-4-(Thiophen-2-yl)Butanamide] | 0.87
6 | COc1cc(CNC(=O)CCCCC2CCSS2)ccc1O (stereo not drawn) [compound 3] | 0.13

Same assay, conditions: read-out: TRPV1 IC50 (desensitization); cited from earlier work

Row | SMILES | IC50 [µM]
7 | COc1cc(CNC(=O)CCCc2ccc(I)s2)ccc1O [4a] | 0.0051
8 | COc1cc(CNC(=O)CCCc2ccc(-c3cccnc3)s2)ccc1O [4b] | 0.145
9 | COc1cc(CNC(=O)CCCc2ccc(-c3ccccc3)s2)ccc1O [4c] | 0.0017
10 | COc1cc(CNC(=O)CCCc2ccccc2)ccc1O [4d] | 0.273
12 | COc1cc(CNC(=O)CCCc2cccs2)ccc1O [compound 2, N-(4-Hydroxy-3-Methoxybenzyl)-4-(Thiophen-2-yl)Butanamide] | 1.3
13 | COc1cc(CNC(=O)CCCCC2CCSS2)ccc1O (stereo not drawn) [compound 3] | 0.13

Target: T1, human TRPV1 (Homo sapiens, UniProt Q8NER1);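 on Emax: percent of maximal Ca2+ influx with 4 µM ionomycin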;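 on TRPV1 Eff. %: percent of maximal Ca2+ influx with 4 µM ionomycin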
T1 construct: expressed in transfected cells
Test: cell-based
Settings: not given

T1 sequence (Q8NER1 whole entry): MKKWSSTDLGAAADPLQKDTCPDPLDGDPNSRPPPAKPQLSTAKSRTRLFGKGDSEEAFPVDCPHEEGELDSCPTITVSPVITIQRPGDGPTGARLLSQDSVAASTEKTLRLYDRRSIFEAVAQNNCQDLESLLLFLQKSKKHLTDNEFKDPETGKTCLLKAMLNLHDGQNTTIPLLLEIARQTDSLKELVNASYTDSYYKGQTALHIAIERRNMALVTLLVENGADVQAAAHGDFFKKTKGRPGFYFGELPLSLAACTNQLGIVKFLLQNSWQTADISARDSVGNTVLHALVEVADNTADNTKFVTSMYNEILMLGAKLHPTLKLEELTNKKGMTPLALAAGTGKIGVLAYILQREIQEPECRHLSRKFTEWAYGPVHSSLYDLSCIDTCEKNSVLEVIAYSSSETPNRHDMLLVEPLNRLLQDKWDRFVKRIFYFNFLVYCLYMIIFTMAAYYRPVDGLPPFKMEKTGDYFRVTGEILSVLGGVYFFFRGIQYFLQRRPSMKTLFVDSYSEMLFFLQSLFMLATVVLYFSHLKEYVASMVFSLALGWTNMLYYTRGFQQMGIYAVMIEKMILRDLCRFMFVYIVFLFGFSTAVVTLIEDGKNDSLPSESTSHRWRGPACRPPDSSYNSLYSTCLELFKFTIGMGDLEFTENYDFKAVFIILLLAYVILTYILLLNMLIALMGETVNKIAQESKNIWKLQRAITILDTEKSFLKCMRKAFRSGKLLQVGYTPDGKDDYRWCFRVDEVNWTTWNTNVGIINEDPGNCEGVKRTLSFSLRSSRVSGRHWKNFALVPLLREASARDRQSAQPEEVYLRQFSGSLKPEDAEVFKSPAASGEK

Row | SMILES | EC50 [µM] | IC50 [µM] | TRPV1 Eff. % [%] | TRPV1 agonist behaviour (in words)
14 | O=C(Nc1ccc(O)cc1)c1cc2ccccc2[nH]1 [5a, N-(4-Hydroxyphenyl)-1H-indole-2-carboxamide] | 2.3 ± 0.1 | 10 ± 3.9 |  | 
15 | O=C(NCc1ccccc1)c1cc2ccccc2[nH]1 [5b, N-Benzyl-1H-indole-2-carboxamide] |  | > 100 |  | 
16 | O=C(NCc1ccc(O)cc1)c1cc2ccccc2[nH]1 [5c, N-(4-Hydroxybenzyl)-1H-indole-2-carboxamide] | > 10 | > 50 |  | 
17 | COc1ccc(CNC(=O)c2cc3ccccc3[nH]2)cc1 [5d, N-(4-Methoxybenzyl)-1H-indole-2-carboxamide] |  | > 50 |  | 
18 | O=C(NCc1ccc(F)cc1)c1cc2ccccc2[nH]1 [5e, N-(4-Fluorobenzyl)-1H-indole-2-carboxamide] |  | > 100 |  | 
19 | COc1cc(CNC(=O)c2cc3ccccc3[nH]2)ccc1O [5f, N-(4-Hydroxy-3-methoxybenzyl)-1H-indole-2-carboxamide] | 0.56 ± 0.08 | 1.03 ± 0.09 | 66.8 ± 1.3 | 
20 | O=C(NCc1ccc(Cl)c(Cl)c1)c1cc2ccccc2[nH]1 [5g, N-(3,4-Dichlorobenzyl)-1H-indole-2-carboxamide] |  | > 100 |  | 
21 | O=C(NCc1ccc(F)c(F)c1)c1cc2ccccc2[nH]1 [5h, N-(3,4-Difluorobenzyl)-1H-indole-2-carboxamide] |  | > 100 |  | 
22 | O=C(NCCc1ccc(O)c(O)c1)c1cc2ccccc2[nH]1 [5i, N-(3,4-Dihydroxyphenethyl)-1H-indole-2-carboxamide] | 8.1 ± 0.1 | 2.1 ± 0.1 |  | very weak agonist
23 | Cn1c(C(=O)Nc2ccc(O)cc2)cc2ccccc21 [6a, N-(4-Hydroxyphenyl)-1-methyl-1H-indole-2-carboxamide] | 0.34 ± 0.01 | 0.72 ± 0.08 |  | 
24 | Cn1c(C(=O)Nc2ccc(F)cc2)cc2ccccc21 [6b, N-(4-Fluorophenyl)-1-methyl-1H-indole-2-carboxamide] | 3.5 ± 2.1 | 6.9 ± 2.6 | 34.4 ± 4.5 | 
25 | Cn1c(C(=O)NCc2ccccc2)cc2ccccc21 [6c, N-Benzyl-1-methyl-1H-indole-2-carboxamide] |  | > 50 |  | 
26 | Cn1c(C(=O)NCc2ccc(O)cc2)cc2ccccc21 [6d, N-(4-hydroxybenzyl)-1-methyl-1H-indole-2-carboxamide] | 1.1 ± 0.1 | 19.2 ± 6.7 | 27.6 ± 0.3 | 
27 | COc1ccc(CNC(=O)c2cc3ccccc3n2C)cc1 [6e, N-(4-methoxybenzyl)-1-methyl-1H-indole-2-carboxamide] |  | > 10 |  | 
28 | Cn1c(C(=O)NCc2ccc(F)cc2)cc2ccccc21 [6f, N-(4-fluorobenzyl)-1-methyl-1H-indole-2-carboxamide] |  | > 100 |  | 
29 | COc1cc(CNC(=O)c2cc3ccccc3n2C)ccc1O [6g, N-(4-hydroxy-3-methoxybenzyl)-1-methyl-1H-indole-2-carboxamide] | 0.0365 |  |  | 
30 | Cn1c(C(=O)NCc2ccc(Cl)c(Cl)c2)cc2ccccc21 [6h, N-(3,4-Dichlorobenzyl)-1-methyl-1H-indole-2-carboxamide] |  | 16.4 ± 0.5 |  | 
31 | Cn1c(C(=O)NCc2ccc(F)c(F)c2)cc2ccccc21 [6i, N-(3,4-Difluorobenzyl)-1-methyl-1H-indole-2-carboxamide] |  | > 100 |  | 
32 | Cn1c(C(=O)NCCc2ccc(O)c(O)c2)cc2ccccc21 [6j, N-(3,4-Dihydroxyphenethyl)-1-methyl-1H-indole-2-carboxamide] | 0.18 ± 0.05 | 0.26 ± 0.02 |  | 

Same assay, conditions: HEK293, read-out: TRPV1 Eff. %

Row | SMILES | Emax [%]
33 | O=C(Nc1ccc(O)cc1)c1cc2ccccc2[nH]1 [5a, N-(4-Hydroxyphenyl)-1H-indole-2-carboxamide] | 54
34 | O=C(NCc1ccccc1)c1cc2ccccc2[nH]1 [5b, N-Benzyl-1H-indole-2-carboxamide] | < 10
35 | O=C(NCc1ccc(O)cc1)c1cc2ccccc2[nH]1 [5c, N-(4-Hydroxybenzyl)-1H-indole-2-carboxamide] | 47.2 ± 0.3
36 | COc1ccc(CNC(=O)c2cc3ccccc3[nH]2)cc1 [5d, N-(4-Methoxybenzyl)-1H-indole-2-carboxamide] | < 10
37 | O=C(NCc1ccc(F)cc1)c1cc2ccccc2[nH]1 [5e, N-(4-Fluorobenzyl)-1H-indole-2-carboxamide] | < 10
38 | COc1cc(CNC(=O)c2cc3ccccc3[nH]2)ccc1O [5f, N-(4-Hydroxy-3-methoxybenzyl)-1H-indole-2-carboxamide] | 66.8
39 | O=C(NCc1ccc(Cl)c(Cl)c1)c1cc2ccccc2[nH]1 [5g, N-(3,4-Dichlorobenzyl)-1H-indole-2-carboxamide] | < 10
40 | O=C(NCc1ccc(F)c(F)c1)c1cc2ccccc2[nH]1 [5h, N-(3,4-Difluorobenzyl)-1H-indole-2-carboxamide] | < 10
41 | O=C(NCCc1ccc(O)c(O)c1)c1cc2ccccc2[nH]1 [5i, N-(3,4-Dihydroxyphenethyl)-1H-indole-2-carboxamide] | 37.3 ± 0.1
42 | Cn1c(C(=O)Nc2ccc(O)cc2)cc2ccccc21 [6a, N-(4-Hydroxyphenyl)-1-methyl-1H-indole-2-carboxamide] | > 60
43 | Cn1c(C(=O)Nc2ccc(F)cc2)cc2ccccc21 [6b, N-(4-Fluorophenyl)-1-methyl-1H-indole-2-carboxamide] | 34.4
44 | Cn1c(C(=O)NCc2ccccc2)cc2ccccc21 [6c, N-Benzyl-1-methyl-1H-indole-2-carboxamide] | < 10
45 | Cn1c(C(=O)NCc2ccc(O)cc2)cc2ccccc21 [6d, N-(4-hydroxybenzyl)-1-methyl-1H-indole-2-carboxamide] | 27.6
46 | COc1ccc(CNC(=O)c2cc3ccccc3n2C)cc1 [6e, N-(4-methoxybenzyl)-1-methyl-1H-indole-2-carboxamide] | < 10
47 | Cn1c(C(=O)NCc2ccc(F)cc2)cc2ccccc21 [6f, N-(4-fluorobenzyl)-1-methyl-1H-indole-2-carboxamide] | < 10
48 | COc1cc(CNC(=O)c2cc3ccccc3n2C)ccc1O [6g, N-(4-hydroxy-3-methoxybenzyl)-1-methyl-1H-indole-2-carboxamide] | > 60
49 | Cn1c(C(=O)NCc2ccc(Cl)c(Cl)c2)cc2ccccc21 [6h, N-(3,4-Dichlorobenzyl)-1-methyl-1H-indole-2-carboxamide] | < 10
50 | Cn1c(C(=O)NCc2ccc(F)c(F)c2)cc2ccccc21 [6i, N-(3,4-Difluorobenzyl)-1-methyl-1H-indole-2-carboxamide] | < 10
51 | Cn1c(C(=O)NCCc2ccc(O)c(O)c2)cc2ccccc21 [6j, N-(3,4-Dihydroxyphenethyl)-1-methyl-1H-indole-2-carboxamide] | > 60

Same assay, conditions: read-out: TRPV1 IC50 (antagonism/desensitization)

Row | SMILES | IC50 [µM]
52 | COc1cc(CNC(=O)c2cc3ccccc3n2C)ccc1O [6g, N-(4-hydroxy-3-methoxybenzyl)-1-methyl-1H-indole-2-carboxamide] | 0.0535 ± 0.048

Target: T2, rat TRPA1 (Rattus norvegicus, UniProt Q6RI86);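 on Emax: percent of maximal Ca2+ influx with 100 µM AITC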;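 on TRPA1 Eff. %: percent of maximal Ca2+ influx with 100 µM AITC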
T2 construct: expressed in transfected cells
Test: cell-based
Settings: not given

T2 sequence (Q6RI86 whole entry): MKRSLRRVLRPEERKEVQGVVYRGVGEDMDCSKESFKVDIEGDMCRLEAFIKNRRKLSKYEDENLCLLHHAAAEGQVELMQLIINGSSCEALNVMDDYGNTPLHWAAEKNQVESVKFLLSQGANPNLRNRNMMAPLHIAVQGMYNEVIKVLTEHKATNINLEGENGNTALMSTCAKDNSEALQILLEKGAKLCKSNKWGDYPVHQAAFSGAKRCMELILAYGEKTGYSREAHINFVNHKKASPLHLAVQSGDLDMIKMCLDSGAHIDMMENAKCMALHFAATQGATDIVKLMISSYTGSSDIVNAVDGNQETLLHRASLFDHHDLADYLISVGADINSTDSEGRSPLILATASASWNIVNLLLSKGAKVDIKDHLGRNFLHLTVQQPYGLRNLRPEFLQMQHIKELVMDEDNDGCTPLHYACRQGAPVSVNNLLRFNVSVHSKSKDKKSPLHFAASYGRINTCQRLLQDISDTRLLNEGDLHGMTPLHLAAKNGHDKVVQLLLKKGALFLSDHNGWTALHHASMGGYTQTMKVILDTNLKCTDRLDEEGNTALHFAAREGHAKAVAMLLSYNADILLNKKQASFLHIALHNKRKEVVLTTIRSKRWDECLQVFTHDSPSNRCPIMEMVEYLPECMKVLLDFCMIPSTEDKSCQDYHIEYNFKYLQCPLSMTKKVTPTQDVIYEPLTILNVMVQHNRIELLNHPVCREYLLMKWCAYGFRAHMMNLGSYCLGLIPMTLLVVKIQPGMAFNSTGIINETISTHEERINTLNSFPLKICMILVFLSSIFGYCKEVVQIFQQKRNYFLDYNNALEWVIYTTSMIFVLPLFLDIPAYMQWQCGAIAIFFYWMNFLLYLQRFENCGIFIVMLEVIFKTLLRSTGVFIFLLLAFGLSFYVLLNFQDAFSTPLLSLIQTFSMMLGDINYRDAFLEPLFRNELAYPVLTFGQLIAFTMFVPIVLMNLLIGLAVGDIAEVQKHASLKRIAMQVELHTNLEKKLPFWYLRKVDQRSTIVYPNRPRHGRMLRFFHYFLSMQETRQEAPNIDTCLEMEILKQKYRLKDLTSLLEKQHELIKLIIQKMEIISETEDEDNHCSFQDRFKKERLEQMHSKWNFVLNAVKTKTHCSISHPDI

Row | SMILES | IC50 [µM] | EC50 [µM] | TRPA1 Eff. % [%] | TRPA1 agonist behaviour (in words)
53 | O=C(Nc1ccc(O)cc1)c1cc2ccccc2[nH]1 [5a, N-(4-Hydroxyphenyl)-1H-indole-2-carboxamide] | > 100 |  |  | 
54 | O=C(NCc1ccccc1)c1cc2ccccc2[nH]1 [5b, N-Benzyl-1H-indole-2-carboxamide] | > 100 |  |  | 
55 | O=C(NCc1ccc(O)cc1)c1cc2ccccc2[nH]1 [5c, N-(4-Hydroxybenzyl)-1H-indole-2-carboxamide] | > 100 |  |  | 
56 | COc1ccc(CNC(=O)c2cc3ccccc3[nH]2)cc1 [5d, N-(4-Methoxybenzyl)-1H-indole-2-carboxamide] | > 100 | > 50 |  | 
57 | O=C(NCc1ccc(F)cc1)c1cc2ccccc2[nH]1 [5e, N-(4-Fluorobenzyl)-1H-indole-2-carboxamide] | > 50 | 23.7 ± 2.1 |  | 
58 | O=C(NCc1ccc(F)c(F)c1)c1cc2ccccc2[nH]1 [5h, N-(3,4-Difluorobenzyl)-1H-indole-2-carboxamide] | > 50 | 19.1 ± 3.1 |  | 
59 | Cn1c(C(=O)Nc2ccc(O)cc2)cc2ccccc21 [6a, N-(4-Hydroxyphenyl)-1-methyl-1H-indole-2-carboxamide] | > 50 | 22.7 ± 1.7 |  | 
60 | Cn1c(C(=O)Nc2ccc(F)cc2)cc2ccccc21 [6b, N-(4-Fluorophenyl)-1-methyl-1H-indole-2-carboxamide] | 5.2 ± 0.4 | 2 ± 1.1 | 78.6 ± 9.7 | very good TRPA1 agonist
61 | Cn1c(C(=O)NCc2ccccc2)cc2ccccc21 [6c, N-Benzyl-1-methyl-1H-indole-2-carboxamide] | > 50 |  |  | 
62 | Cn1c(C(=O)NCc2ccc(O)cc2)cc2ccccc21 [6d, N-(4-hydroxybenzyl)-1-methyl-1H-indole-2-carboxamide] | > 100 |  |  | 
63 | COc1ccc(CNC(=O)c2cc3ccccc3n2C)cc1 [6e, N-(4-methoxybenzyl)-1-methyl-1H-indole-2-carboxamide] | > 50 | 20.3 ± 1.1 |  | 
64 | Cn1c(C(=O)NCc2ccc(F)cc2)cc2ccccc21 [6f, N-(4-fluorobenzyl)-1-methyl-1H-indole-2-carboxamide] | 33.5 ± 3.2 | 20.4 ± 6.9 |  | 
65 | COc1cc(CNC(=O)c2cc3ccccc3n2C)ccc1O [6g, N-(4-hydroxy-3-methoxybenzyl)-1-methyl-1H-indole-2-carboxamide] | > 100 | > 50 |  | 
66 | Cn1c(C(=O)NCc2ccc(F)c(F)c2)cc2ccccc21 [6i, N-(3,4-Difluorobenzyl)-1-methyl-1H-indole-2-carboxamide] | 32.2 ± 3.2 | 10.9 ± 0.9 |  | 

Same assay, conditions: HEK293, read-out: TRPA1 Eff. %

Row | SMILES | Emax [%]
67 | O=C(Nc1ccc(O)cc1)c1cc2ccccc2[nH]1 [5a, N-(4-Hydroxyphenyl)-1H-indole-2-carboxamide] | < 10
68 | O=C(NCc1ccccc1)c1cc2ccccc2[nH]1 [5b, N-Benzyl-1H-indole-2-carboxamide] | < 10
69 | O=C(NCc1ccc(O)cc1)c1cc2ccccc2[nH]1 [5c, N-(4-Hydroxybenzyl)-1H-indole-2-carboxamide] | < 10
70 | COc1ccc(CNC(=O)c2cc3ccccc3[nH]2)cc1 [5d, N-(4-Methoxybenzyl)-1H-indole-2-carboxamide] | 39.1 ± 3.5
71 | O=C(NCc1ccc(F)cc1)c1cc2ccccc2[nH]1 [5e, N-(4-Fluorobenzyl)-1H-indole-2-carboxamide] | 42.8 ± 1.8
72 | O=C(NCc1ccc(F)c(F)c1)c1cc2ccccc2[nH]1 [5h, N-(3,4-Difluorobenzyl)-1H-indole-2-carboxamide] | 68.4 to 101
73 | Cn1c(C(=O)Nc2ccc(O)cc2)cc2ccccc21 [6a, N-(4-Hydroxyphenyl)-1-methyl-1H-indole-2-carboxamide] | 42.9 ± 0.5
74 | Cn1c(C(=O)Nc2ccc(F)cc2)cc2ccccc21 [6b, N-(4-Fluorophenyl)-1-methyl-1H-indole-2-carboxamide] | 78.6
75 | Cn1c(C(=O)NCc2ccccc2)cc2ccccc21 [6c, N-Benzyl-1-methyl-1H-indole-2-carboxamide] | < 10
76 | Cn1c(C(=O)NCc2ccc(O)cc2)cc2ccccc21 [6d, N-(4-hydroxybenzyl)-1-methyl-1H-indole-2-carboxamide] | < 10
77 | COc1ccc(CNC(=O)c2cc3ccccc3n2C)cc1 [6e, N-(4-methoxybenzyl)-1-methyl-1H-indole-2-carboxamide] | 81.3 ± 1.8
78 | COc1cc(CNC(=O)c2cc3ccccc3n2C)ccc1O [6g, N-(4-hydroxy-3-methoxybenzyl)-1-methyl-1H-indole-2-carboxamide] | 59.8 ± 1.6
79 | Cn1c(C(=O)NCc2ccc(F)c(F)c2)cc2ccccc21 [6i, N-(3,4-Difluorobenzyl)-1-methyl-1H-indole-2-carboxamide] | 68.4 to 101
